Target: T1, recombinant human Flag-tagged PARP7 (amino acids 456-657) (Homo sapiens, UniProt Q7Z3E1)
T1 construct: recombinant human Flag-tagged PARP7 (amino acids 456-657)
T1 sequence (Q7Z3E1 456-657): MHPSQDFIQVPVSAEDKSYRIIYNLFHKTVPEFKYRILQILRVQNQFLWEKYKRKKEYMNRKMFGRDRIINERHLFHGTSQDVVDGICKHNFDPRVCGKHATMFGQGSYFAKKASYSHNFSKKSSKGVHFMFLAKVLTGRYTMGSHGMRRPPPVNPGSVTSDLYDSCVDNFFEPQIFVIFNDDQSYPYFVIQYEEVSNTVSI
Test: PARP7 biochemical DELFIA assay (auto-MARylation)
Conditions: DELFIA readout, IC50 class
Outline: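 Flag-PARP7 (456-657), 12.5-37.5 nM stock, captured on anti-FLAG wells, preincubated 30 min with compound, then auto-MARylated with biotin-NAD+ (15 μM stock) in HEPES pH 7.5/NaCl/DTT/BSA/Tween for 2-3 h at room temperature. NAD+ quench; Eu-streptavidin DELFIA read, Ex337/Em620 nm.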

SMILES	IC50
CC(COCCC(=O)N1CCN(c2ncc(C(F)(F)F)cn2)CC1)n1nc(C(F)(F)F)c2c(=O)[nH]ncc21 (single isomer, unassigned) [Compound 177, 1-(1-(3-oxo-3-(4-(5-(trifluoromethyl)pyrimidin-2-yl)piperazin-1-yl)propoxy)propan-2-yl)-3-(trifluoromethyl)-1,5-dihydro-4H-pyrazolo[3,4-d]pyridazin-4-one]	≤ 0.1 µM
CC(CCOCC(=O)N1CCN(c2ncc(Cl)cn2)CC1)n1nc(C(F)(F)F)c2c(=O)[nH]ncc21 (stereo not drawn) [Compound 453]	≤ 0.1 µM
CC(CCOCC(=O)N1CCN(c2ncc(C(F)(F)F)cn2)CC1)n1cc(C(F)(F)F)c2c(=O)[nH]ncc21 (stereo not drawn) [Compound 454]	≤ 0.1 µM
CC(COCC(=O)NC1CCN(c2ncc(C(F)(F)F)cn2)CC1)n1cc(C(F)(F)F)c2c(=O)[nH]ncc21 (stereo not drawn) [Compound 458]	≤ 0.1 µM
CC(COCC(=O)N(C)C1CCN(c2ncc(C(F)(F)F)cn2)CC1)n1cc(C(F)(F)F)c2c(=O)[nH]ncc21 (stereo not drawn) [Compound 463]	≤ 0.1 µM
CC(COCCC(=O)N1CCN(c2ncc(C#N)cn2)CC1)n1cc(C(F)(F)F)c2c(=O)[nH]ncc21 (stereo not drawn) [Compound 465]	≤ 0.1 µM
Cc1cc(=O)n(CCOCCC(=O)N2CCN(c3ncc(C(F)(F)F)cn3)CC2)c2cn[nH]c(=O)c12 [Compound 470, 4-methyl-1-(2-(3-oxo-3-(4-(5-(trifluoromethyl)pyrimidin-2-yl)piperazin-1-yl)propoxy)ethyl)pyrido[2,3-d]pyridazine-2,5(1H,6H)-dione]	≤ 0.1 µM
O=C(CCOCCn1nc(C(F)(F)F)c2c(=O)[nH]ncc21)N1CCN(c2cc(C(F)(F)F)[nH]n2)CC1 [Compound 471]	≤ 0.1 µM
Cc1c(C(F)(F)F)c2c(=O)[nH]ncc2n1C(C)COCCC(=O)N1CCN(c2ncc(C(F)(F)F)cn2)CC1 (stereo not drawn) [Compound 474]	≤ 0.1 µM
Cc1c(C(F)(F)F)c2c(=O)[nH]ncc2n1C(C)COCCC(=O)N1CCN(c2ncc(C(F)(F)F)cn2)CC1 (stereo not drawn) [Compound 475]	≤ 0.1 µM
O=C(c1cccc(Cn2cc(C(F)(F)F)c3c(=O)[nH]ncc32)c1)N1CCN(c2ncc(C(F)(F)F)cn2)CC1 [Compound 478]	≤ 0.1 µM
CC(COCCC(=O)N1CCN(c2ncc(C(C)(F)F)cn2)CC1)n1cc(C(F)(F)F)c2c(=O)[nH]ncc21 (stereo not drawn) [Compound 481]	≤ 0.1 µM
CC(COCCC(=O)N1CCN(c2ccc(C(C)(F)F)cn2)CC1)n1cc(C(F)(F)F)c2c(=O)[nH]ncc21 (stereo not drawn) [Compound 483]	≤ 0.1 µM
N#Cc1cnc(N2CCN(C(=O)CCOCCn3cc(C(F)(F)F)c4c(=O)[nH]ncc43)CC2)s1 [Compound 487]	≤ 0.1 µM
O=C(CCOCCn1nc(C(F)(F)F)c2c(=O)[nH]ncc21)N1CCN(c2ncc(C(F)(F)F)[nH]2)CC1 [Compound 488]	≤ 0.1 µM
CC(COCCC(=O)N1CCN(c2cc(C(F)(F)F)[nH]n2)CC1)n1nc(C(F)(F)F)c2c(=O)[nH]ncc21 (stereo not drawn) [Compound 489]	≤ 0.1 µM
O=C(OCC1CC1Cn1nc(C(F)(F)F)c2c(=O)[nH]ncc21)N1CCN(c2ncc(C(F)(F)F)cn2)CC1 (stereo not drawn) [Compound 492]	≤ 0.1 µM
O=C(OCC1CC1Cn1nc(C(F)(F)F)c2c(=O)[nH]ncc21)N1CCN(c2ncc(C(F)(F)F)cn2)CC1 (stereo not drawn) [Compound 493]	≤ 0.1 µM
N#Cc1cnc(N2CCN(C(=O)CCOCCn3nc(C(F)(F)F)c4c(=O)[nH]ncc43)CC2)s1 [Compound 502]	≤ 0.1 µM

Test system: CT26 colorectal cancer cells
Test: Induction of IFNβ in cancer cell supernatants (mouse IFNβ ELISA), CT26
Assay type: cell-based, murine
Conditions: 10 μM compound 177 alone or in combination with chemotherapeutic agents, 24 hours, FIG. 1
Method: (§1) Selected compounds were also tested for their ability to induce type I interferon (interferon β, IFNβ) production in cancer cells as a cell-based measure of PARP7 inhibition and its effects on stimulating the STING pathway signalling. […] Such data highlight the therapeutic utility of combining PARP7 inhibitors with chemotherapy or other agents that can induce aberrant cytosolic nucleic acids in order to further enhance an anti-tumour immune response.
(§2) CT26 and MC38 cells were seeded in 96-well microplates each at a density of 30,000 cells per well. Following overnight incubation, cells were treated with either DMSO, 10 μM compound 177, or various chemotherapeutic agents (final DMSO concentration of 0.2% v/v). Cells were also treated with 10 μM compound 177 in combination with various chemotherapeutic agents. After 24 hours, IFNβ was measured from cell supernatants using a sandwich enzyme linked immunosorbent assay (ELISA) assay kit (PBL Assay Sciences, catalogue number 42410-2) according to manufacturer's instructions.

SMILES	induction of IFNβ in cell supernatants
CC(COCCC(=O)N1CCN(c2ncc(C(F)(F)F)cn2)CC1)n1nc(C(F)(F)F)c2c(=O)[nH]ncc21 (single isomer, unassigned) [Compound 177, 1-(1-(3-oxo-3-(4-(5-(trifluoromethyl)pyrimidin-2-yl)piperazin-1-yl)propoxy)propan-2-yl)-3-(trifluoromethyl)-1,5-dihydro-4H-pyrazolo[3,4-d]pyridazin-4-one]	induction of IFNβ

Test system: MC38 colorectal cancer cells
Test: Induction of IFNβ in cancer cell supernatants (mouse IFNβ ELISA), MC38
Assay type: cell-based, murine
Conditions: 10 μM compound 177 alone or in combination with chemotherapeutic agents, 24 hours, FIG. 1
Method: as §1, §2

SMILES	induction of IFNβ in cell supernatants
CC(COCCC(=O)N1CCN(c2ncc(C(F)(F)F)cn2)CC1)n1nc(C(F)(F)F)c2c(=O)[nH]ncc21 (single isomer, unassigned) [Compound 177, 1-(1-(3-oxo-3-(4-(5-(trifluoromethyl)pyrimidin-2-yl)piperazin-1-yl)propoxy)propan-2-yl)-3-(trifluoromethyl)-1,5-dihydro-4H-pyrazolo[3,4-d]pyridazin-4-one]	induction of IFNβ

Test system: cancer cell lines with high baseline expression of interferon stimulated genes
Test: not given
Conditions: cited from earlier work

SMILES	inhibition of proliferation
C[C@@H](COCCC(=O)N1CCN(c2ncc(C(F)(F)F)cn2)CC1)Nc1cn[nH]c(=O)c1C(F)(F)F [RBN-2397]	potently inhibited proliferation

Test system: type I interferon responses
Test: not given
Conditions: both in vitro and in vivo; cited from earlier work

SMILES	type I interferon responses
C[C@@H](COCCC(=O)N1CCN(c2ncc(C(F)(F)F)cn2)CC1)Nc1cn[nH]c(=O)c1C(F)(F)F [RBN-2397]	restored type I interferon responses

Test system: tumour
Test: not given
Conditions: animal models; cited from earlier work

SMILES	tumour regression and specific anti-tumour immunity
C[C@@H](COCCC(=O)N1CCN(c2ncc(C(F)(F)F)cn2)CC1)Nc1cn[nH]c(=O)c1C(F)(F)F [RBN-2397]	tumour regression
